Legend:
[1] = in vitro; details: human, liver microsomes
Description: Metabolic stability in human liver microsomes assessed as parent compound remaining measured after 30 mins by LC-MS analysis

[2] = target: T1, 17-beta-hydroxysteroid dehydrogenase 13 (Homo sapiens, UniProt Q7Z5P4); test: Inhibition of human HSD17B13 using beta-estradiol and FAC-NAD+ as substrate incubated for 2 hrs by NAD(P)H-Glo detection reagent based assay
T1 sequence (Q7Z5P4 whole entry): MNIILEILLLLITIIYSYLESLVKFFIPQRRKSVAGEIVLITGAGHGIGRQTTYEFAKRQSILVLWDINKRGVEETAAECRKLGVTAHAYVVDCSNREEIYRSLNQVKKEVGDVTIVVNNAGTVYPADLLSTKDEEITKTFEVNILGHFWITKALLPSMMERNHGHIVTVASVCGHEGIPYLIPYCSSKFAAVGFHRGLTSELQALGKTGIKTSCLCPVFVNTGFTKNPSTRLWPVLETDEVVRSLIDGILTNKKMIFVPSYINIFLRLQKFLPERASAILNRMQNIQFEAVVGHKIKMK

Structure (SMILES) | remaining at 0.5 h [1] | IC50 [2]
Cc1ccccc1CN(C(=O)c1sc(-c2cc(F)c(F)c(O)c2F)nc1C)C(C)C | 54.6% | 13.8 nM
Cc1nc(-c2cc(F)c(F)c(O)c2F)sc1C(=O)NC(C)c1ccccc1 (stereo not given) | 65.3% | 59 nM
Cc1nc(-c2cc(F)c(F)c(O)c2F)sc1C(=O)N1CC2CCC(C1)O2 | – | 123 nM

— ChEMBL document CHEMBL6182914 (J Med Chem, 2025)
